In patent US20260209214A1, “LSD1 MODULATORS” (RECURSION PHARMACEUTICALS, INC., priority 2022, published 2026):
Where a name gives a salt, the structure may show the parent alone.

target: Recombinant human LSD1 (Homo sapiens, UniProt O60341); test: LSD1 inhibition assay (HTRF LSD1 Histone H3K4 mono-demethylation assay, me1->me0); assay type: biochemical; details: 20 nM recombinant human LSD1, 95 nM H3K4(me1) biotinylated peptide, 15 min preincubation, 60 min at 25° C., read-out: LSD1 inhibition IC50 (nM range)
Procedure, shortened: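 HTRF demethylation (me1->me0) read-out: streptavidin-XL665 and anti-H3K4me0 cryptate added after reaction, ratio measured after 90 min dark. Reaction: 95 nM H3K4me1 biotin-peptide, 20 nM LSD1 (15-min compound pre-incubation), 60 min, 25 °C, buffer pH 8.5 plus FAD and DTT; 4-parameter logistic IC50.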

| Compound | IC50 [nM] |
| --- | --- |
| N#Cc1ccc(-c2cccc(CN3[C@@H]4CC[C@H]3[C@@H](N)C4)c2N2CCC2)cc1F (racemic) [Example 203, 3'-{[(1S,2S,4R)-2-amino-7-azabicyclo[2.2.1]heptan-7-yl]methyl}-2'-(azetidin-1-yl)-3-fluoro-[1,1'-biphenyl]-4-carbonitrile] | 25 to 100 |
| N#Cc1ccc(-c2cc(CC3CNCCO3)ccc2C2CCCO2)cc1F (stereo not drawn) [Example 145, 3-fluoro-5′-[(morpholin-2-yl)methyl]-2′-(oxolan-2-yl)-[1,1′-biphenyl]-4-carbonitrile] | > 1000 |
| C[C@@H]1[C@@H](N)CCCN1Cc1cccc(-c2ccc(C#N)c(F)c2)c1Cl [Example 329, 3'-{[(2R,3S)-3-amino-2-methylpiperidin-1-yl]methyl}-2'-chloro-3-fluoro-[1,1'-biphenyl]-4-carbonitrile] | > 1000 |
| N#Cc1ccc(-c2cccc(CN3[C@@H]4CC[C@H]3[C@@H](N)C4)c2C2CC2)cc1F (single isomer, unassigned) [Example 261] | 100 to 1000 |
| Cc1cc(NCC2CNCCO2)c(Cl)c(-c2ccc(C#N)c(F)c2)c1 (stereo not drawn) [Example 89, 2′-chloro-3-fluoro-5′-methyl-3′-{[(morpholin-2-yl)methyl]amino}-[1,1′-biphenyl]-4-carbonitrile] | > 1000 |
| CC1(N)CCCN(Cc2cccc(-c3ccc(C#N)c(F)c3)c2Cl)C1 (stereo not drawn) [Example 286, 3'-[(3-amino-3-methylpiperidin-1-yl)methyl]-2'-chloro-3-fluoro-[1,1'-biphenyl]-4-carbonitrile] | > 1000 |
| N#Cc1ccc(-c2cccc(CN3[C@@H]4CC[C@H]3[C@@H](N)C4)c2-c2ccns2)cc1 (single isomer, unassigned) [Example 204] | 10 to 25 |
| COC1CN(c2ccc(CC3CNCCO3)cc2-c2ccc(C#N)c(F)c2)C1 (stereo not drawn) [Example 140, 3-fluoro-2′-(3-methoxyazetidin-1-yl)-5′-[(morpholin-2-yl)methyl]-[1,1′-biphenyl]-4-carbonitrile] | > 1000 |
| N#Cc1ccc(-c2cccc(CN3[C@@H]4CC[C@H]3[C@@H](N)C4)c2C(F)(F)F)cc1F (racemic) [Example 200, 3'-{[(1S,2S,4R)-2-amino-7-azabicyclo[2.2.1]heptan-7-yl]methyl}-3-fluoro-2'-(trifluoromethyl)-[1,1'-biphenyl]-4-carbonitrile] | 25 to 100 |
| N#Cc1ccc(-c2cc(CC3CNC4(CC4)CO3)ccc2N2CCC2)cc1F (stereo not drawn) [Example 135, 2′-(azetidin-1-yl)-3-fluoro-5′-({7-oxa-4-azaspiro[2.5]octan-6-yl}methyl)-[1,1′-biphenyl]-4-carbonitrile] | > 1000 |
| N#Cc1ccc(-c2cccc(CN3[C@@H]4CC[C@H]3[C@@H](N)C4)c2C2=CCOC2)cc1F (racemic) [Example 303, 3'-{[(1S,2S,4R)-2-amino-7-azabicyclo[2.2.1]heptan-7-yl]methyl}-2'-(2,5-dihydrofuran-3-yl)-3-fluoro-[1,1'-biphenyl]-4-carbonitrile] | < 10 |
| N#Cc1ccc(-c2cc(CC3CNCCO3)ccc2-c2ccn3cnnc3c2)cc1F (stereo not drawn) [Example 157, 3-fluoro-5′-[(morpholin-2-yl)methyl]-2′-{[1,2,4]triazolo[4,3-a]pyridin-7-yl}-[1,1′-biphenyl]-4-carbonitrile] | > 1000 |
| N#Cc1ccc(-c2cc(CC3CNCCO3)ccc2N2CCC3(CCCO3)CC2)cc1F (stereo not drawn) [Example 78, 3-fluoro-5′-[(morpholin-2-yl)methyl]-2′-{1-oxa-8-azaspiro[4.5]decan-8-yl}-[1,1′-biphenyl]-4-carbonitrile] | 100 to 1000 |
| CN[C@@H]1C[C@@H]2CC[C@H]1N2Cc1cccc(-c2ccc(C#N)cc2)c1-c1ccns1 (single isomer, unassigned) [Example 173] | < 10 |
| COc1ccc(-c2ccc(CN3[C@@H]4CC[C@H]3[C@@H](N)C4)cc2-c2ccc(C#N)c(F)c2)cn1 (racemic) [Example 230, 5'-{[(1S,2S,4R)-2-amino-7-azabicyclo[2.2.1]heptan-7-yl]methyl}-3-fluoro-2'-(6-methoxypyridin-3-yl)-[1,1'-biphenyl]-4-carbonitrile] | 10 to 25 |
| Cc1cc(CNCC2(C)CCN(C)C2)c(Cl)c(-c2ccc(C#N)c(F)c2)c1 (stereo not drawn) [Example 298, 2'-chloro-3'-({[(1,3-dimethylpyrrolidin-3-yl)methyl]amino}methyl)-3-fluoro-5'-methyl-[1,1'-biphenyl]-4-carbonitrile] | 100 to 1000 |
| COCc1cc(-c2ccc(CC3CNCCO3)cc2-c2ccc(C#N)c(F)c2)on1 (stereo not drawn) [Example 129, 3-fluoro-2′-[3-(methoxymethyl)-1,2-oxazol-5-yl]-5′-[(morpholin-2-yl)methyl]-[1,1′-biphenyl]-4-carbonitrile] | 100 to 1000 |
| N#Cc1ccc(-c2cccc(CN3[C@@H]4CC[C@H]3[C@@H](N)C4)c2OC(F)F)cc1F (single isomer, unassigned) [Example 183] | < 10 |

The remaining lines, values ahead:

| IC50 [nM] | Compound |
| --- | --- |
| 100 to 1000 | COc1cn(-c2ccc(CC3CNCCO3)cc2-c2ccc(C#N)c(F)c2)nc1C (stereo not drawn) [Example 77, 3-fluoro-2′-(4-methoxy-3-methyl-1H-pyrazol-1-yl)-5′-[(morpholin-2-yl)methyl]-[1,1′-biphenyl]-4-carbonitrile] |
| 100 to 1000 | N#Cc1ccc(-c2cc(CC3CNCCO3)ccc2COc2cccnc2)cc1F (stereo not drawn) [Example 106, 3-fluoro-5′-[(morpholin-2-yl)methyl]-2′-[(pyridin-3-yloxy)methyl]-[1,1′-biphenyl]-4-carbonitrile] |
| 25 to 100 | N#Cc1ccc(-c2cccc(C[C@H]3CNCCO3)c2-c2scnc2Cl)cc1F (single isomer, unassigned) [Example 31] |
| 100 to 1000 | CC1(C)CNCC(Cc2ccc(N3CCC3)c(-c3ccc(C#N)c(F)c3)c2)O1 (stereo not drawn) [Example 139, 2'-(azetidin-1-yl)-5'-[(6,6-dimethylmorpholin-2-yl)methyl]-3-fluoro-[1,1'-biphenyl]-4-carbonitrile] |
| 10 to 25 | CC(C)C1(O)CCN(c2ccc(CN3C[C@]4(N)CC[C@H]3C4)cc2-c2ccc(C#N)c(F)c2)CC1 [Example 262, 5'-{[(1S,4S)-4-amino-2-azabicyclo[2.2.1]heptan-2-yl]methyl}-3-fluoro-2'-[4-hydroxy-4-(propan-2-yl)piperidin-1-yl]-[1,1'-biphenyl]-4-carbonitrile] |
| 100 to 1000 | Cc1sncc1-c1c(CC2CNCCO2)cccc1-c1ccc(C#N)c(F)c1 [Example 113, (2R,3R)-2,3-dihydroxybutanedioic acid; 2-fluoro-4-[2-(5-methylisothiazol-4-yl)-3-(morpholin-2-ylmethyl)phenyl]benzonitrile] |
| 10 to 25 | N#Cc1ccc(-c2cccc(C[C@@H]3CNCCO3)c2-c2scnc2Cl)cc1F (single isomer, unassigned) [Example 37] |
| 100 to 1000 | N#Cc1ccc(-c2cccc(CC3CNCCO3)c2N2CCC2)cc1 (stereo not drawn) [Example 50, 2′-(azetidin-1-yl)-3′-[(morpholin-2-yl)methyl]-[1,1′-biphenyl]-4-carbonitrile] |
| 100 to 1000 | CN1CCC(O)(Cc2cccc(-c3ccc(C#N)c(F)c3)c2C2CC2)CC1 [Example 166, 2′-cyclopropyl-3-fluoro-3′-[(4-hydroxy-1-methylpiperidin-4-yl)methyl]-[1,1′-biphenyl]-4-carbonitrile] |
| 25 to 100 | N#Cc1ccc(-c2cccc(CC3CCOCC3)c2-c2ccns2)cc1F [Example 111, 3-fluoro-3′-[(oxan-4-yl)methyl]-2′-(1,2-thiazol-5-yl)-[1,1′-biphenyl]-4-carbonitrile] |
| 10 to 25 | N#Cc1ccc(-c2cccc(CN3C[C@]4(N)CC[C@H]3C4)c2-c2ccns2)cc1F [Example 171, 4-[3-[[(1S,4S)-4-amino-2-azabicyclo[2.2.1]heptan-2-yl]methyl]-2-isothiazol-5-yl-phenyl]-2-fluoro-benzonitrile hydrochloride] |
| 25 to 100 | N#Cc1ccc(-c2cccc(CN3C[C@]4(N)CC[C@H]3C4)c2Cl)cc1F [Example 196, 3'-{[(1S,4S)-4-amino-2-azabicyclo[2.2.1]heptan-2-yl]methyl}-2'-chloro-3-fluoro-[1,1'-biphenyl]-4-carbonitrile] |
| 10 to 25 | N#Cc1ccc(-c2cc(CN3C[C@]4(N)CC[C@H]3C4)ccc2N2CCC3(CCCO3)CC2)cc1F [Example 217, 5'-{[(1S,4S)-4-amino-2-azabicyclo[2.2.1]heptan-2-yl]methyl}-3-fluoro-2'-{1-oxa-8-azaspiro[4.5]decan-8-yl}-[1,1'-biphenyl]-4-carbonitrile] |
| 10 to 25 | N#Cc1ccc(-c2cc(F)cc(CC3CNCCO3)c2-c2ccns2)cc1F (stereo not drawn) [Example 18, 3,5′-difluoro-3′-[(morpholin-2-yl)methyl]-2′-(1,2-thiazol-5-yl)-[1,1′-biphenyl]-4-carbonitrile] |
| 25 to 100 | N#Cc1ccc(-c2cccc(CN3C[C@H]4C[C@@H](N)C[C@@H]3C4)c2C2CC2)cc1F (stereo in doubt) [Example 318, 3'-{[(1S,3R,5S)-3-amino-6-azabicyclo[3.2.1]octan-6-yl]methyl}-2'-cyclopropyl-3-fluoro-[1,1'-biphenyl]-4-carbonitrile] |
| 25 to 100 | N#Cc1ccc(-c2cccc(CC3CNCCO3)c2-c2cnco2)cc1F (stereo not drawn) [Example 47, 3-fluoro-3′-[(morpholin-2-yl)methyl]-2′-(1,3-oxazol-5-yl)-[1,1′-biphenyl]-4-carbonitrile] |
| 25 to 100 | Cn1cc(-c2c(CC3CNCCO3)cccc2-c2ccc(C#N)c(F)c2)cn1 (stereo not drawn) [Example 153, 3-fluoro-2′-(1-methyl-1H-pyrazol-4-yl)-3′-[(morpholin-2-yl)methyl]-[1,1′-biphenyl]-4-carbonitrile] |
| 25 to 100 | N#Cc1ccc(-c2cc(CC3CNCCO3)ccc2-c2ccc(N3CCCC3)nc2)cc1F (stereo not drawn) [Example 93, 3-fluoro-5′-[(morpholin-2-yl)methyl]-2′-[6-(pyrrolidin-1-yl)pyridin-3-yl]-[1,1′-biphenyl]-4-carbonitrile] |
